Measurements from PMC4706877, “Antibacterial and Cytotoxic Activity of Compounds Isolated from Flourensia oolepis” (Evidence-based Complementary and Alternative Medicine : eCAM, 2015).

What was measured:
[1] = tested on: CCRF-CEM cells; assay: Apoptosis by Annexin V/PI double staining; assay type: cell-based, human; settings: 2 × IC50, 72 h
Procedure: (§1) After incubation, cells were harvested, washed, and suspended in cold PBS. The proportion of cells undergoing apoptosis was examined by double staining using allophycocyanin (APC) conjugated Annexin-V (BD Pharmingen, USA) and propidium iodide (Sigma-Aldrich CO, USA). Over the following hour, the fluorescence of ten thousand cells, including that of control groups, was assayed and populations were analyzed with FlowJo software version 7.6.2 (Tree Star, Inc., OR, USA). Percentages of Annexin-V positive cells (PI− or PI+) indicate early or late apoptosis, respectively.

[2] = tested on: K562 cells; assay: Apoptosis by Annexin V/PI double staining; assay type: cell-based, human; settings: 2 × IC50, 72 h
Procedure: as §1

O=C(/C=C/c1ccccc1)c1ccc(O)cc1O [Compound 1, 2′,4′-dihydroxychalcone]
early and late apoptotic cells [1]: 26.7% | early and late apoptotic cells [2]: 68.7%
